PubChem BioAssay (NCI)
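Values below derive from 48-hour exposures of cells grown in 96-well plates, with endpoints linearly interpolated between the two concentrations bracketing the appropriate inhibition level. TGI: concentration producing complete growth inhibition.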

How the values were obtained:
Test in all cases: inhibition of tumour cell growth, NCI panel, 48 h
SF-268 CNS = test system: SF-268 CNS
U251 CNS = test system: U251 CNS
MDA-MB-435 = test system: MDA-MB-435
HCT-116 colon = test system: HCT-116 colon
COLO 205 colon = test system: COLO 205 colon
MDA-N = test system: MDA-N
HCC-2998 colon = test system: HCC-2998 colon
SNB-75 CNS = test system: SNB-75 CNS
CCRF-CEM leukemia = test system: CCRF-CEM leukemia
ACHN renal = test system: ACHN renal
HS 578T breast = test system: HS 578T breast
SK-OV-3 ovarian = test system: SK-OV-3 ovarian
HOP-92 NSCLC = test system: HOP-92 NSCLC
A498 renal = test system: A498 renal
DU-145 prostate = test system: DU-145 prostate
SF-539 CNS = test system: SF-539 CNS

SMILES | TGI (SF-268 CNS) | TGI (U251 CNS) | TGI (MDA-MB-435) | TGI (HCT-116 colon) | TGI (COLO 205 colon) | TGI (MDA-N) | TGI (HCC-2998 colon) | TGI (SNB-75 CNS) | TGI (CCRF-CEM leukemia) | TGI (ACHN renal) | TGI (HS 578T breast) | TGI (SK-OV-3 ovarian) | TGI (HOP-92 NSCLC) | TGI (A498 renal) | TGI (DU-145 prostate) | TGI (SF-539 CNS)
CCCCCC(=O)OCC1(CO)C/C(=C\CC(C(C)C)C(C)C)C(=O)O1 (stereo not given) | > 100 µM | 85.3 µM | > 100 µM | > 100 µM | 53.5 µM | > 100 µM | > 100 µM | > 100 µM | > 100 µM | > 100 µM | > 100 µM | > 100 µM | > 100 µM | > 100 µM | > 100 µM | –
COC(=O)NN=C(c1ccc(Cl)cc1)c1ccc(Cl)cc1 | > 100 µM | > 100 µM | > 100 µM | > 100 µM | > 100 µM | > 100 µM | > 100 µM | > 100 µM | > 100 µM | – | > 100 µM | > 100 µM | – | > 100 µM | > 100 µM | > 100 µM
C#CCOC(=O)C(N)CSSCC(N)C(=O)O (stereo not given) | > 100 µM | > 100 µM | > 100 µM | > 100 µM | > 100 µM | > 100 µM | > 100 µM | > 100 µM | > 100 µM | > 100 µM | > 100 µM | – | > 100 µM | > 100 µM | > 100 µM | > 100 µM
CC(=O)OCC12C(OC(C)=O)C[C@@H](C)C3(CC(c4ccoc4)OC3=O)C1CCC(O)C21CO1 (stereo not given in full) | > 100 µM | > 100 µM | > 100 µM | > 100 µM | > 100 µM | > 100 µM | > 100 µM | > 100 µM | – | > 100 µM | > 100 µM | – | > 100 µM | > 100 µM | > 100 µM | > 100 µM
CCOC(=O)c1cc2c([nH]1)C(=O)CC1=C2CCN1Cc1ccccc1 | 43.6 µM | 25.4 µM | 27.6 µM | 25.8 µM | 31.8 µM | 26.8 µM | – | 46.2 µM | 28.6 µM | 25.6 µM | 57.4 µM | 37.1 µM | 28.3 µM | 29 µM | 28.6 µM | 39.4 µM
c1ccc2c3c([nH]c2c1)C1c2[nH]c4ccccc4c2CCN1CC3 | 30.3 µM | – | 33.5 µM | 23.3 µM | 35.2 µM | 35.6 µM | 25.9 µM | 38.8 µM | > 100 µM | 27.1 µM | 44.7 µM | 27.1 µM | 15.4 µM | 34.4 µM | 26.1 µM | 31.3 µM
COC(=NCCC1=CCCCC1)OC | > 100 µM | > 100 µM | > 100 µM | > 100 µM | 31.2 µM | > 100 µM | 39.9 µM | > 100 µM | > 100 µM | > 100 µM | > 100 µM | > 100 µM | > 100 µM | > 100 µM | > 100 µM | –
CSc1nc2c(N)ncnc2n1C | > 100 µM | > 100 µM | > 100 µM | > 100 µM | > 100 µM | > 100 µM | > 100 µM | > 100 µM | > 100 µM | > 100 µM | > 100 µM | > 100 µM | – | > 100 µM | > 100 µM | > 100 µM
O=C(/C=C(\Nc1ccccc1O)c1ccccc1)C(=O)NC12CC3CC(CC(C3)C1)C2 | > 10 µM | > 10 µM | > 10 µM | – | > 10 µM | > 10 µM | > 10 µM | > 10 µM | > 10 µM | > 10 µM | > 10 µM | > 10 µM | – | > 10 µM | > 10 µM | > 10 µM
CC(=O)O[C@H]1CC[C@@]2(C)C(=CC[C@@H]3[C@@H]2CC[C@]2(C)C(=N/O)/C(=C/c4ccc([N+](=O)[O-])cc4)C[C@@H]32)C1 | > 100 µM | – | 29.3 µM | > 100 µM | 10 µM | > 100 µM | – | 40.5 µM | > 100 µM | > 100 µM | 8.46 µM | > 100 µM | 62 µM | 25.5 µM | 31.4 µM | > 100 µM
Cc1cc2c(cc1C)[n+](=O)c(C(=O)N1CCN(c3ccc([N+](=O)[O-])cc3)CC1)c(C)n2[O-] | 57.1 µM | 41.3 µM | > 100 µM | > 100 µM | > 100 µM | > 100 µM | > 100 µM | – | > 100 µM | 12.7 µM | > 100 µM | 51.2 µM | > 100 µM | > 100 µM | > 100 µM | 35.4 µM
O=C(N/N=C1/C(=O)c2c3ccccc3cc3cccc1c23)c1cccc(Cl)c1 | – | > 100 µM | > 100 µM | > 100 µM | > 100 µM | > 100 µM | > 100 µM | > 100 µM | > 100 µM | > 100 µM | 67.2 µM | > 100 µM | > 100 µM | > 100 µM | > 100 µM | > 100 µM
O=C1CC(=O)c2c(Cl)sc(Cl)c21 | > 100 µM | > 100 µM | > 100 µM | > 100 µM | > 100 µM | > 100 µM | – | > 100 µM | > 100 µM | > 100 µM | 93.9 µM | > 100 µM | > 100 µM | > 100 µM | > 100 µM | > 100 µM
O=C(OCC12CC3CC(CC(C3)C1)C2)c1ccc(NCc2cc(O)ccc2O)cc1 | 20.5 µM | 5.33 µM | 7.06 µM | 10.3 µM | 2.8 µM | 16.7 µM | 4.02 µM | 7.23 µM | – | 7.04 µM | 12.1 µM | 20.4 µM | 17.6 µM | 11.8 µM | 18.7 µM | 1.93 µM
Nc1nc(NNc2ccc(Cl)c(Cl)c2)cc(=O)[nH]1 | > 100 µM | 68.3 µM | 74.1 µM | > 100 µM | 61.1 µM | > 100 µM | 44.7 µM | – | > 100 µM | > 100 µM | > 100 µM | – | 79.8 µM | > 100 µM | > 100 µM | > 100 µM
